Test results reported in BindingDB's records for doi:10.1021/jm070370z (Ligand Pharmaceuticals, 2007).

Molecular target: T1, Glucocorticoid receptor (Homo sapiens, UniProt P04150)
T1 sequence (P04150 whole entry): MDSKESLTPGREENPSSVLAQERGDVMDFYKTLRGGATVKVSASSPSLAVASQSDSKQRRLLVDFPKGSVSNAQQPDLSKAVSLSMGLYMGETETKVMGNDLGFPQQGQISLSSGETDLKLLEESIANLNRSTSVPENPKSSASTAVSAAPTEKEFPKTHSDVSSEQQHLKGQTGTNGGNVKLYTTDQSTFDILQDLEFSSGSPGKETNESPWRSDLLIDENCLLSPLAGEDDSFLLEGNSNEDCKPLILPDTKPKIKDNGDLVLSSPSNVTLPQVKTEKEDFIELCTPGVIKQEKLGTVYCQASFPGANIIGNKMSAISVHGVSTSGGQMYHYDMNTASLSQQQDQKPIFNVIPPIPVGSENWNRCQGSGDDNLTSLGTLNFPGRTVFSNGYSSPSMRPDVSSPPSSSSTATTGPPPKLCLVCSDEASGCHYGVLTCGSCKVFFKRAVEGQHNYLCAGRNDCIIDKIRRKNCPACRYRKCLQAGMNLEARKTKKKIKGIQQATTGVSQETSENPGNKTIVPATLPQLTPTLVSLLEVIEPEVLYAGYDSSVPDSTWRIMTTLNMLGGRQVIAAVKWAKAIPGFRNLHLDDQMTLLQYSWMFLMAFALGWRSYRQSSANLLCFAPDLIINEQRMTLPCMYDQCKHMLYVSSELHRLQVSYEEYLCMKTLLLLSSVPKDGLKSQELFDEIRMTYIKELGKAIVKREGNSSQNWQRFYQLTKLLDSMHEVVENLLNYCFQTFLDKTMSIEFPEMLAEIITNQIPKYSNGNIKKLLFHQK
Assay: GR-Mediated Antagonist Activity Assay and IL-6 Repression Assay
Settings: pH 7.5
Protocol: Potencies of compounds are reported as the concentration at which they reach half their antagonist (IC50) activity. IL-6 Repression Assay- The GR-mediated repression of IL-6 production in a human fibroblast (NHDFneo) cell line is measured with a modified ELISA assay.

Row | SMILES | IC50 [pM] | EC50 [pM]
1 | COc1c(O)ccc2c1-c1ccc3c(c1C(=Cc1sccc1C(=O)C1CCCCC1)O2)C(C)=CC(C)(C)N3 [(18Z)-18-[(3-cyclohexanecarbonylthiophen-2-yl)methylidene]-12-methoxy-3,5,5-trimethyl-17-oxa-6-azatetracyclo[8.8.0.0^{2,7}.0^{11,16}]octadeca-1(10),2(7),3,8,11,13,15-heptaen-13-ol] | 1000 | 
2 | COc1c(O)ccc2c1-c1ccc3c(c1/C(=C/c1sccc1[C@H](O)C(F)(F)F)O2)C(C)=CC(C)(C)N3 [(18Z)-12-methoxy-3,5,5-trimethyl-18-({3-[(1S)-2,2,2-trifluoro-1-hydroxyethyl]thiophen-2-yl}methylidene)-17-oxa-6-azatetracyclo[8.8.0.0^{2,7}.0^{11,16}]octadeca-1(10),2(7),3,8,11,13,15-heptaen-13-ol] | 200 | 200
3 | CCCCC(O)c1ccsc1/C=C1\Oc2ccc(O)c(OC)c2-c2ccc3c(c21)C(C)=CC(C)(C)N3 (stereo unspecified) [(18Z)-18-{[3-(1-hydroxypentyl)thiophen-2-yl]methylidene}-12-methoxy-3,5,5-trimethyl-17-oxa-6-azatetracyclo[8.8.0.0^{2,7}.0^{11,16}]octadeca-1(10),2(7),3,8,11,13,15-heptaen-13-ol] | 900 | 
4 | COc1c(O)ccc2c1-c1ccc3c(c1/C(=C/c1sccc1[C@@H](O)C(F)(F)F)O2)C(C)=CC(C)(C)N3 [(18Z)-12-methoxy-3,5,5-trimethyl-18-({3-[(1R)-2,2,2-trifluoro-1-hydroxyethyl]thiophen-2-yl}methylidene)-17-oxa-6-azatetracyclo[8.8.0.0^{2,7}.0^{11,16}]octadeca-1(10),2(7),3,8,11,13,15-heptaen-13-ol] | 600 | 1400
